Reference: ChEMBL document CHEMBL1156043, “Selective inactivation of triosephosphate isomerase from Trypanosoma cruzi by brevifolin carboxylate derivatives isolated from Geranium bellum Rose” (Bioorg Med Chem Lett, 2009)

How the values were obtained:
[1] = target: T1, Triosephosphate isomerase, glycosomal (Trypanosoma cruzi, UniProt P52270); test: Inhibition of Trypanosoma cruzi recombinant triosephosphate isomerase after 2 hrs; conditions: read-out: I50
[2] = target: Triosephosphate isomerase (Homo sapiens, UniProt P60174); test: Inhibition of human recombinant triosephosphate isomerase after 2 hrs; conditions: read-out: I50
Sequence of Triosephosphate isomerase (P60174 whole entry): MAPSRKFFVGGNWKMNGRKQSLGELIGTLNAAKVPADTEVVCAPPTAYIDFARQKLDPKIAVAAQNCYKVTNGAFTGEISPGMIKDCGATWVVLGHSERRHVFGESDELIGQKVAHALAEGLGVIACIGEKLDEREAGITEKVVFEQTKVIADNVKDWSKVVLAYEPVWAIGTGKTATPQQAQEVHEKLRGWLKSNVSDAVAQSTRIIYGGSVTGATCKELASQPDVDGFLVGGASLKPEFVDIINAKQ

[3] = target: T1, Triosephosphate isomerase, glycosomal; test: Binding affinity to Trypanosoma cruzi recombinant triosephosphate isomerase; conditions: read-out: Kd(app)

T1 sequence (P52270 whole entry): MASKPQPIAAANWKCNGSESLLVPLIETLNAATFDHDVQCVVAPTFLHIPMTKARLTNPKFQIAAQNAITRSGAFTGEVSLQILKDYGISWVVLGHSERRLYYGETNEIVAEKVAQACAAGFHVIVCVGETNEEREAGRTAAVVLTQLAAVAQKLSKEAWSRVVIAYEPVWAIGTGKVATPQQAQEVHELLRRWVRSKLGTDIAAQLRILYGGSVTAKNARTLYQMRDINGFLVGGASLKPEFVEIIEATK

IC50 [1]	IC50 [2]	Kd [3]	SMILES
14 µM	> 1 mM	–	CCCCOC(=O)C1CC(=O)c2oc(=O)c3cc(O)c(O)c(O)c3c21 (centres undefined) [BUTYLBREVIFOLIN CARBOXYLATE]
> 1000 µM	> 1 mM	–	COC(=O)C1CC(=O)c2oc(=O)c3cc(OC)c(OC)c(OC)c3c21 (centres undefined)
6.5 µM	> 1 mM	10.4 µM	COC(=O)C1CC(=O)c2oc(=O)c3cc(O)c(O)c(O)c3c21 (centres undefined) [METHYLBREVIFOLIN CARBOXYLATE]
8 µM	> 1 mM	–	CCOC(=O)C1CC(=O)c2oc(=O)c3cc(O)c(O)c(O)c3c21 (centres undefined) [ETHYLBREVIFOLIN CARBOXYLATE]
